What was measured:
[1] = test system: KRas-mediated phosphorylation of ERK in H727 cells; test: Inhibition of KRas-mediated phosphorylation of ERK (Cisbio HTRF pERK), H727 cells; format: cell-based; conditions: Homo sapiens, NCI-H727, H727 cells; HTRF pERK
In short: (§1)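 Signal read by HTRF (d2/Cryptate antibody pair, 2 hr room-temperature incubation on lysate). Cells: 6,000 per well, 3 hr compound exposure. Titration: 10 uM highest, 3-fold, 10 points.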

[2] = test system: KRas-mediated phosphorylation of ERK in HCT116 cells; test: Inhibition of KRas-mediated phosphorylation of ERK (Cisbio HTRF pERK), HCT116 cells; format: cell-based; conditions: Homo sapiens, HCT-116, HTRF pERK
In short: (§2)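 Using 6,000 cells per well, compounds are applied for 3 hrs and cells then lysed at 4° C with shaking for 40 mins. Phospho-ERK is measured by HTRF after 2 hrs of lysate incubation with the d2/Cryptate antibody mixture.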

[3] = target: T1, KRas^G12R (Homo sapiens, UniProt P01116, G12R); test: KRas binding assay (TR-FRET tracer displacement), KRas G12R
T1 construct: Biotinylated KRas (corresponding to amino acids 1-169, produced at Accelegan Inc.); biotin (biotinylated); purchased Accelegan Inc
T1 sequence (P01116 1-169 isoform P01116-2 G12R): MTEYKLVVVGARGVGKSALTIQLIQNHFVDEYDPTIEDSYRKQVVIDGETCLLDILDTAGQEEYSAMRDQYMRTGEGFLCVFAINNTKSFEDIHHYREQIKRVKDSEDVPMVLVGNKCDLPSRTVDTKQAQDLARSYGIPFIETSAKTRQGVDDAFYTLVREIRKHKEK

[4] = target: T2, KRas^G12V (Homo sapiens, UniProt P01116, G12V); test: KRas binding assay (TR-FRET tracer displacement), KRas G12V
T2 construct: Biotinylated KRas (corresponding to amino acids 1-169, produced at Accelegan Inc.); biotin (biotinylated); purchased Accelegan Inc
T2 sequence (P01116 1-169 isoform P01116-2 G12V): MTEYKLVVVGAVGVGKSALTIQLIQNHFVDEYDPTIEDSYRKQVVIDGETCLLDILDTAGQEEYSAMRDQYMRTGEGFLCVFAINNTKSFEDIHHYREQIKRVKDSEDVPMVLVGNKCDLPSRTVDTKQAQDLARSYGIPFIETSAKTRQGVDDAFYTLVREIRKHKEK

[5] = test system: KRas-mediated phosphorylation of ERK in H358 cells; test: Inhibition of KRas-mediated phosphorylation of ERK (Cisbio HTRF pERK), H358 cells; format: cell-based; conditions: Homo sapiens, NCI-H358, HTRF pERK
In short: as §1

[6] = test system: KRas-mediated phosphorylation of ERK in PSN1 cells; test: Inhibition of KRas-mediated phosphorylation of ERK (Cisbio HTRF pERK), PSN1 cells; format: cell-based; conditions: Homo sapiens
In short: (§3)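 Day 1 seeding: 6,000 cells per well, RPMI/10% FBS, left overnight at 37° C. with 5% CO2. Plates then stood covered for 4 h at room temperature prior to HTRF detection of pERK.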

[7] = test system: KRas-mediated phosphorylation of ERK in AsPC-1 cells; test: Inhibition of KRas-mediated phosphorylation of ERK (Cisbio HTRF pERK), AsPC-1 cells; format: cell-based; conditions: Homo sapiens, ASPC1, AsPC-1 cells; HTRF pERK
In short: as §1

[8] = test system: KRas-mediated phosphorylation of ERK in H460 cells; test: Inhibition of KRas-mediated phosphorylation of ERK (Cisbio HTRF pERK), H460 cells; format: cell-based; conditions: Homo sapiens, NCI-H460, HTRF pERK
In short: as §1

[9] = test system: KRas-mediated phosphorylation of ERK in A549 cells; test: Inhibition of KRas-mediated phosphorylation of ERK (Cisbio HTRF pERK), A549 cells; format: cell-based; conditions: Homo sapiens, HTRF pERK
In short: as §2

[10] = test system: KRas-mediated phosphorylation of ERK in MKN1 cells; test: Inhibition of KRas-mediated phosphorylation of ERK (Cisbio HTRF pERK), MKN1 cells; format: cell-based; conditions: Homo sapiens, MKN-1
In short: as §3

[11] = target: T3, KRas^G12D (Homo sapiens, UniProt P01116, G12D); test: KRas binding assay (TR-FRET tracer displacement), KRas G12D
T3 construct: Biotinylated KRas (corresponding to amino acids 1-169, produced at Accelegan Inc.); biotin (biotinylated); purchased Accelegan Inc
T3 sequence (P01116 1-169 isoform P01116-2 G12D): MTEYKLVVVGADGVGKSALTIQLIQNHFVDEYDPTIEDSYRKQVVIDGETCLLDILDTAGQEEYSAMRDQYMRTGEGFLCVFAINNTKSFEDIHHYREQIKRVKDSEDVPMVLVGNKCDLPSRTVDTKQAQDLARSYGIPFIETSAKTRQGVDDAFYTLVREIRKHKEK

Row | SMILES | IC50 [1] [nM] | IC50 [2] [nM] | IC50 [3] [nM] | IC50 [4] [nM] | IC50 [5] [nM] | IC50 [6] [nM] | IC50 [7] [nM] | IC50 [8] [nM] | IC50 [9] [nM] | IC50 [10] [nM] | IC50 [11] [nM]
1 | CCc1c(F)ccc2cc(O)cc(-c3ncc4c(N5CCC[C@@](C)(O)C5)nc(OC[C@@]56CCCN5[C@@H](COC)CC6)nc4c3F)c12 [Example 886, (R)-1-(7-(8-ethyl-7-fluoro-3-hydroxynaphthalen-1-yl)-8-fluoro-2-(((3R,7aS)-3-(methoxymethyl)tetrahydro-1H-pyrrolizin-7a(5H)-yl)methoxy)pyrido[4,3-d]pyrimidin-4-yl)-3-methylpiperidin-3-ol] | 135 | 59 | 4 | 2 | 18 | 2560 | 40 | 27 | 73 | 22 | 2
2 | CCc1c(F)ccc2cc(O)cc(-c3ncc4c(N5CCC[C@@](C)(O)C5)nc(OC[C@@]56CCCN5[C@H](COC(C)C)CC6)nc4c3F)c12 [Example 895, (R)-1-(7-(8-ethyl-7-fluoro-3-hydroxynaphthalen-1-yl)-8-fluoro-2-(((3S,7aS)-3-(isopropoxymethyl)tetrahydro-1H-pyrrolizin-7a(5H)-yl)methoxy)pyrido[4,3-d]pyrimidin-4-yl)-3-methylpiperidin-3-ol] | 119 | 79 | < 2 | < 2 | 11 | 905 | 27 | 42 | 73 | 11 | < 2

More lines, now with the values ahead:

Row | IC50 [1] [nM] | IC50 [2] [nM] | IC50 [3] [nM] | IC50 [4] [nM] | IC50 [5] [nM] | IC50 [6] [nM] | IC50 [7] [nM] | IC50 [8] [nM] | IC50 [9] [nM] | IC50 [10] [nM] | IC50 [11] [nM] | SMILES
3 | 129 | 188 | 5 | < 2 | 24 | > 10000 | 600 | 134 | 365 | 55 | 4 | CCc1c(F)ccc2cc(O)cc(-c3ncc4c(N5CC6CCC(C(=O)NC)(C6)C5)nc(OC[C@@]56CCCN5C[C@H](F)C6)nc4c3F)c12 (stereo partly drawn) [Example 889, 3-(7-(8-ethyl-7-fluoro-3-hydroxynaphthalen-1-yl)-8-fluoro-2-(((2R,7aS)-2-fluorotetrahydro-1H-pyrrolizin-7a(5H)-yl)methoxy)pyrido[4,3-d]pyrimidin-4-yl)-N-methyl-3-azabicyclo[3.2.1]octane-1-carboxamide]
4 | 295 | 568 | 9 | 6 | 382 | > 10000 | 621 | 150 | 658 | 73 | 22 | CCc1c(F)ccc2cc(O)cc(-c3ncc4c(N5CC6CCC(COC)(C6)C5)nc(OC[C@@]56CCCN5C[C@H](F)C6)nc4c3F)c12 (stereo partly drawn) [Example 891, 5-ethyl-6-fluoro-4-(8-fluoro-2-(((2R,7aS)-2-fluorotetrahydro-1H-pyrrolizin-7a(5H)-yl)methoxy)-4-(1-(methoxymethyl)-3-azabicyclo[3.2.1]octan-3-yl)pyrido[4,3-d]pyrimidin-7-yl)naphthalen-2-ol]
5 | 1630 | 992 | 26 | 26 | 960 | > 10000 | 2180 | 382 | 2140 | 174 | 120 | CCc1c(F)ccc2cc(O)cc(-c3ncc4c(N5CC6CCC(COC(=O)N(C)C)(C6)C5)nc(OC[C@@]56CCCN5C[C@H](F)C6)nc4c3F)c12 (stereo partly drawn) [Example 892, (3-(7-(8-ethyl-7-fluoro-3-hydroxynaphthalen-1-yl)-8-fluoro-2-(((2R,7aS)-2-fluorotetrahydro-1H-pyrrolizin-7a(5H)-yl)methoxy)pyrido[4,3-d]pyrimidin-4-yl)-3-azabicyclo[3.2.1]octan-1-yl)methyl dimethylcarbamate]

— patent US20260015350A1, “AZAQUINAZOLINE PAN-KRAS INHIBITORS” (Mirati Therapeutics, Inc., priority 2022, published 2026)
